ChEMBL document CHEMBL3045159, “Computational evaluation and experimental in vitro antibacterial, antifungal and antiviral activity of bis-Schiff bases of isatin and its derivatives” (Med Chem Res, 2013)
Values after ≈ are worked out from the molar mass of the structure shown.

Assays:
[1] = system: Staphylococcus aureus; test: Antibacterial activity against Staphylococcus aureus CIP 4.83; type: functional
[2] = system: Vesicular stomatitis virus; test: Antiviral activity against Vesicular stomatitis virus infected HeLa; type: functional
[3] = system: Coxsackievirus B4; test: Antiviral activity against Human coxsackievirus B4 infected Vero cells; type: functional; conditions: Enterovirus B
[4] = system: Saccharomyces cerevisiae; test: Antifungal activity against Saccharomyces cerevisiae ATCC 28383; type: functional
[5] = Cytotoxicity against Homo sapiens (human) HEL cells; type: cell-based
[6] = system: Vaccinia virus; test: Antiviral activity against Vaccinia virus infected HEL cells; type: functional; conditions: Orthopoxvirus vaccinia
[7] = system: Vesicular stomatitis virus; test: Antiviral activity against Vesicular stomatitis virus infected HEL cells; type: functional
[8] = Cytotoxicity against Chlorocebus aethiops (African green monkey) Vero cells; type: cell-based; conditions: chlorocebus sabaeus
[9] = system: Respiratory syncytial virus; test: Antiviral activity against Respiratory syncytial virus infected HeLa cells; type: functional; conditions: human respiratory syncytial virus
[10] = system: Human alphaherpesvirus 1; test: Antiviral activity against Human herpesvirus 1 strain KOS infected in HEL cells; type: functional; conditions: Human alphaherpesvirus 1, KOS
[11] = system: Punta Toro virus; test: Antiviral activity against Punta Toro virus infected Vero cells; type: functional
[12] = system: Sindbis virus; test: Antiviral activity against Sindbis virus infected Vero cells; type: functional
[13] = Cytotoxicity against Homo sapiens (human) HeLa cells; type: cell-based
[14] = system: Mammalian orthoreovirus 1; test: Antiviral activity against Mammalian orthoreovirus 1 infected Vero cells; type: functional
[15] = system: Human alphaherpesvirus 2; test: Antiviral activity against Human herpesvirus 2 strain G infected HEL cells; type: functional; conditions: Human alphaherpesvirus 2, strain G
[16] = system: Human alphaherpesvirus 1; test: Antiviral activity against thymidine kinase-deficient, acylcovir-resistant Human herpesvirus 1 strain KOS infected in HEL cells; type: functional; conditions: Human alphaherpesvirus 1, KOS
[17] = system: Candida albicans; test: Antifungal activity against Candida albicans CIP 1180-79; type: functional
[18] = system: Coxsackievirus B4; test: Antiviral activity against Human coxsackievirus B4 infected HeLa cells; type: functional; conditions: Enterovirus B
[19] = system: Escherichia coli; test: Antibacterial activity against Escherichia coli CIP 54127; type: functional
[20] = system: Human respirovirus 3; test: Antiviral activity against Human parainfluenza virus 3 infected Vero cells; type: functional

| SMILES | MIC [1] | MIC [2] | MIC [3] | MIC [4] | MCC [5] | MIC [6] | MIC [7] | MCC [8] | MIC [9] | MIC [10] | MIC [11] | MIC [12] | MCC [13] | MIC [14] | MIC [15] | MIC [16] | MIC [17] | MIC [18] | MIC [19] | MIC [20] |
| --- | --- | --- | --- | --- | --- | --- | --- | --- | --- | --- | --- | --- | --- | --- | --- | --- | --- | --- | --- | --- |
| O=C1Nc2ccc(F)cc2/C1=N/c1ccc(Oc2ccc(/N=C3\C(=O)Nc4ccc(F)cc43)cc2)cc1 | < 50 µg/mL | > 16 µg/mL | > 8 µg/mL | < 50 µg/mL | 8 µg/mL | > 1.6 µg/mL | > 1.6 µg/mL | 40 µg/mL | > 16 µg/mL | > 1.6 µg/mL | > 8 µg/mL | > 8 µg/mL | ≥ 16 µg/mL | > 8 µg/mL | > 1.6 µg/mL | > 1.6 µg/mL | < 50 µg/mL | > 16 µg/mL | < 50 µg/mL | > 8 µg/mL |
| O=C1/C(=N\c2ccc(Oc3ccc(/N=C4\C(=O)N(Cc5ccccc5)c5ccccc54)cc3)cc2)c2ccccc2N1Cc1ccccc1 | < 50 µg/mL | > 16 µg/mL | > 80 µg/mL | < 50 µg/mL | 400 µg/mL | > 80 µg/mL | > 80 µg/mL | 80 µg/mL | > 16 µg/mL | > 80 µg/mL | > 80 µg/mL | > 80 µg/mL | 80 µg/mL | > 80 µg/mL | > 80 µg/mL | > 80 µg/mL | < 50 µg/mL | > 16 µg/mL | < 50 µg/mL | > 80 µg/mL |
| O=C1Nc2ccccc2/C1=N/c1ccc(C(=O)c2ccc(/N=C3\C(=O)Nc4ccccc43)cc2)cc1 | < 50 µg/mL | 48 µg/mL (≈ 102 µM) | > 16 µg/mL | < 50 µg/mL | 80 µg/mL | > 16 µg/mL | > 16 µg/mL | ≥ 16 µg/mL | > 16 µg/mL | > 16 µg/mL | > 16 µg/mL | > 16 µg/mL | 80 µg/mL | > 16 µg/mL | > 16 µg/mL | > 16 µg/mL | < 50 µg/mL | > 16 µg/mL | < 50 µg/mL | > 16 µg/mL |
| Cc1c(/N=C2/C(=O)Nc3ccccc32)cccc1/N=C1/C(=O)Nc2ccccc21 | < 100 µg/mL | > 400 µg/mL | > 80 µg/mL | < 100 µg/mL | 400 µg/mL | > 80 µg/mL | > 80 µg/mL | 400 µg/mL | > 400 µg/mL | > 80 µg/mL | > 80 µg/mL | > 80 µg/mL | ≥ 400 µg/mL | > 80 µg/mL | > 80 µg/mL | 16 µg/mL (≈ 42.1 µM) | < 100 µg/mL | > 400 µg/mL | < 100 µg/mL | > 80 µg/mL |
| Nc1ncnc2c1ncn2C[C@H](O)CO [(S)-DHPA] |  | 500 µg/mL (≈ 2390 µM) | > 100 µg/mL |  |  |  |  | 500 µg/mL | > 500 µg/mL |  |  | > 100 µg/mL | > 500 µg/mL | 300 µg/mL (≈ 1430 µM) |  |  |  | > 500 µg/mL |  | > 100 µg/mL |
| Nc1nc2c(ncn2COCCO)c(=O)[nH]1 [ACYCLOVIR] |  |  |  |  | > 500 µg/mL | > 500 µg/mL | > 500 µg/mL |  |  | 2.4 µg/mL (≈ 10.7 µM) |  |  |  |  | 20 µg/mL (≈ 88.8 µM) | 300 µg/mL (≈ 1330 µM) |  |  |  |  |
| O=c1[nH]c(=O)n([C@H]2C[C@H](O)[C@@H](CO)O2)cc1/C=C/Br [BRIVUDINE] |  | > 500 µg/mL | > 100 µg/mL |  | > 500 µg/mL | 60 µg/mL (≈ 180 µM) | > 500 µg/mL | 500 µg/mL | > 500 µg/mL | 0.16 µg/mL (≈ 0.48 µM) | > 100 µg/mL | > 100 µg/mL | 500 µg/mL | > 100 µg/mL | > 500 µg/mL | 500 µg/mL (≈ 1500 µM) |  | > 500 µg/mL |  | > 100 µg/mL |
| Nc1nc2c(ncn2COC(CO)CO)c(=O)[nH]1 [GANCICLOVIR] |  |  |  |  | > 100 µg/mL | > 100 µg/mL | > 100 µg/mL |  |  | 0.48 µg/mL (≈ 1.88 µM) |  |  |  |  | 4 µg/mL (≈ 15.7 µM) | 12 µg/mL (≈ 47 µM) |  |  |  |  |
| NC(=O)c1ncn([C@@H]2O[C@H](CO)[C@@H](O)[C@H]2O)n1 [RIBAVIRIN] |  | 60 µg/mL (≈ 246 µM) | > 500 µg/mL |  | > 500 µg/mL | 300 µg/mL (≈ 1230 µM) | > 500 µg/mL | > 500 µg/mL | 60 µg/mL (≈ 246 µM) | 500 µg/mL (≈ 2050 µM) | 60 µg/mL (≈ 246 µM) | 300 µg/mL (≈ 1230 µM) | > 500 µg/mL | 300 µg/mL (≈ 1230 µM) | > 500 µg/mL | > 500 µg/mL |  | > 500 µg/mL |  | 300 µg/mL (≈ 1230 µM) |
